The record followed here is ChEMBL document CHEMBL1649359, “Izumiphenazines A-C: isolation and structure elucidation of phenazine derivatives from Streptomyces sp. IFM 11204” (2010).

Assay type in all cases: functional
In experiment [1] the test system is AGS. The experiment can be described thus: Induction of apoptosis in TRAIL-resistant human AGS cells assessed as decrease in cell viability at 40 uM after 24 hrs by fluorometric microculture cytotoxic assay in presence of TRAIL relative to in absence of TRAIL.
For experiment [2], the system named is AGS. The experiment can be described thus: Induction of apoptosis in TRAIL-resistant human AGS cells assessed as decrease in cell viability at 30 uM after 24 hrs by fluorometric microculture cytotoxic assay in presence of TRAIL relative to in absence of TRAIL.
In experiment [3] the test system is AGS. The experiment can be described thus: Induction of apoptosis in TRAIL-resistant human AGS cells assessed as decrease in cell viability at 20 uM after 24 hrs by fluorometric microculture cytotoxic assay in presence of TRAIL relative to in absence of TRAIL.

For `O=C(O)c1cc2c(c3nc4c(O)cccc4nc13)[C@@H]1Cc3nc4cccc(O)c4nc3[C@@H](O)[C@@H]1O2` [IZUMIPHENAZINE A], in the experiment with AGS [1], the Activity worked out at 78%. Take `O=C1C[C@H](c2c(O)cc(C(=O)O)c3nc4cccc(O)c4nc23)Cc2nc3cccc(O)c3nc21` [IZUMIPHENAZINE B]: the Activity with AGS [2] is listed as 30%. In the case of `CN(c1ccc(C(=O)O)cc1)c1cccc2nc3c(O)cccc3nc12` [IZUMIPHENAZINE C], the Activity in the experiment on AGS [3] is given as 26%.
